Values of other authors as cited in patent US20200095192A1, “BIODEGRADABLE DIETHANOLAMINE DERIVATIVE CHELATING AGENT AND PREPARATION PROCESS THEREOF” (PTT Global Chemical Public Company Limited, priority 2017, published 2020).
Like-named read-outs stand apart in the source and are kept apart here.

How the values were obtained:
[1] = magnesium (Mg^2+); previous disclosed chelating agent; cited from earlier work
[2] = aluminium (Al^3+); previous disclosed chelating agent; cited from earlier work
[3] = iron (Fe^3+); previous disclosed chelating agent; cited from earlier work
[4] = nickel (Ni^2+); previous disclosed chelating agent; cited from earlier work
[5] = cadmium (Cd^2+); previous disclosed chelating agent; cited from earlier work
[6] = cobolt (Co^2+); previous disclosed chelating agent; cited from earlier work
[7] = mercury (Hg^2+); previous disclosed chelating agent; cited from earlier work
[8] = barium (Ba^2+); previous disclosed chelating agent; cited from earlier work
[9] = manganese (Mn^2+); previous disclosed chelating agent; cited from earlier work
[10] = calcium (Ca^2+); previous disclosed chelating agent; cited from earlier work
[11] = tin (Pb^2+); previous disclosed chelating agent; cited from earlier work
[12] = zinc (Zn^2+); previous disclosed chelating agent; cited from earlier work
[13] = copper (Cu2+); previous disclosed chelating agent; cited from earlier work
[14] = iron (Fe^2+); previous disclosed chelating agent; cited from earlier work
[15] = strontium (Sr^2+); previous disclosed chelating agent; cited from earlier work

## O=C(O)CN(CCO)CC(=O)O [EDG, ethanol diglycine]
[1]
  stability constant: 6.2
[2]
  stability constant: 7.7
[3]
  stability constant: 21.6
[4]
  stability constant: 18.2
[5]
  stability constant: 7.4
[6]
  stability constant: 8.0
[7]
  stability constant: 19.8
[8]
  stability constant: 3.4
[9]
  stability constant: 10.0
[10]
  stability constant: 4.7
[11]
  stability constant: 13.6
[12]
  stability constant: 15.2
[13]
  stability constant: 11.8
[14]
  stability constant: 13.4
[15]
  stability constant: 5.2

## O=C(O)CN(CC(=O)O)CC(=O)O [NTA, nitrilotriacetic acid]
[1]
  stability constant: 5.5
[2]
  stability constant: 11.4
[3]
  stability constant: 15.9
[4]
  stability constant: 11.5
[5]
  stability constant: 9.8
[6]
  stability constant: 10.4
[7]
  stability constant: 14.3
[8]
  stability constant: 4.8
[9]
  stability constant: 7.5
[10]
  stability constant: 6.4
[11]
  stability constant: 11.5
[12]
  stability constant: 10.7
[13]
  stability constant: 13.0
[14]
  stability constant: 8.9
[15]
  stability constant: 5.0

## O=C(O)CN(CCN(CC(=O)O)CC(=O)O)CC(=O)O [EDTA, ethylenediamineteraacetic acid]
[1]
  stability constant: 8.8
[2]
  stability constant: 16.4
[3]
  stability constant: 25.1
[4]
  stability constant: 18.4
[5]
  stability constant: 16.5
[6]
  stability constant: 16.5
[7]
  stability constant: 21.5
[8]
  stability constant: 7.9
[9]
  stability constant: 13.9
[10]
  stability constant: 10.7
[11]
  stability constant: 18.0
[12]
  stability constant: 16.5
[13]
  stability constant: 18.8
[14]
  stability constant: 14.3
[15]
  stability constant: 8.7

## O=C(O)CC[C@@H](C(=O)O)N(CC(=O)O)CC(=O)O [GLDA, glutamic acid N,N-diacetic acid]
[1]
  stability constant: 5.2
[2]
  stability constant: 12.2
[3]
  stability constant: 11.7
[4]
  stability constant: 10.9
[5]
  stability constant: 9.1
[6]
  stability constant: 10.0
[7]
  stability constant: 14.3
[8]
  stability constant: 3.5
[9]
  stability constant: 7.6
[10]
  stability constant: 5.9
[11]
  stability constant: 10.5
[12]
  stability constant: 10.0
[13]
  stability constant: 13.1
[14]
  stability constant: 8.7
[15]
  stability constant: 4.1
